Laboratory results taken from ChEMBL document CHEMBL1201862, “PubChem BioAssay data set” (2004).
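Briefly, cells in 96-well plates were exposed to five compound concentrations for 48 h, and endpoints were estimated by linear interpolation. GI50: concentration for 50% inhibition of growth.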 Activity calls are given as the source filed them. No stated cut-off is given here; in the data, active = GI50 up to about 1.1 µM and inactive = higher.

Assays:
Assay in all cases: NCI anticancer screen, dose series, 48 h
PC-3 = system: PC-3
NCI-H460 = system: NCI-H460
K562 = system: K562
OVCAR-3 = system: OVCAR-3
MDA-MB-231 = system: MDA-MB-231
HL-60 = system: HL-60
SF-295 = system: SF-295
SF-268 = system: SF-268
NCI-H522 = system: NCI-H522
KM12 = system: KM12
Hs-578T = system: Hs-578T
Malme-3M = system: Malme-3M
COLO 205 = system: COLO 205
786-0 = system: 786-0
SR = system: SR
A549 = system: A549
LOX IMVI = system: LOX IMVI
UACC-62 = system: UACC-62
OVCAR-4 = system: OVCAR-4
SK-MEL-5 = system: SK-MEL-5
SNB-19 = system: SNB-19
MDA-MB-435 = system: MDA-MB-435
ACHN = system: ACHN
SK-MEL-28 = system: SK-MEL-28
CCRF-CEM = system: CCRF-CEM
SF-539 = system: SF-539
A498 = system: A498
UACC-257 = system: UACC-257
MOLT-4 = system: MOLT-4
OVCAR-5 = system: OVCAR-5
HCT-15 = system: HCT-15
MCF7 = system: MCF7
EKVX = system: EKVX
IGROV-1 = system: IGROV-1
RPMI-8226 = system: RPMI-8226
RXF 393 = system: RXF 393
NCI-H226 = system: NCI-H226
T47D = system: T47D
SK-MEL-2 = system: SK-MEL-2
DU-145 = system: DU-145
SNB-75 = system: SNB-75
CAKI-1 = system: CAKI-1
TK-10 = system: TK-10
NCI/ADR-RES = system: NCI/ADR-RES
OVCAR-8 = system: OVCAR-8
U-251 = system: U-251
SW-620 = system: SW-620
BT-549 = system: BT-549
HCC 2998 = system: HCC 2998
HOP-92 = system: HOP-92
SN12C = system: SN12C
M14 = system: M14
SK-OV-3 = system: SK-OV-3
NCI-H23 = system: NCI-H23
HT-29 = system: HT-29
UO-31 = system: UO-31
HOP-62 = system: HOP-62
HCT-116 = system: HCT-116

CC(C)(O)c1cc2c(cc1C(C)(C)O)-c1ccccc1-2
GI50 (PC-3): > 100 µM (inactive)
GI50 (NCI-H460): > 100 µM (inactive)
GI50 (K562): > 100 µM (inactive)
GI50 (OVCAR-3): > 100 µM (inactive)
GI50 (MDA-MB-231): > 100 µM (inactive)
GI50 (HL-60): > 100 µM (inactive)
GI50 (SF-295): 67.1 µM (inactive)
GI50 (SF-268): 43.8 µM (inactive)
GI50 (NCI-H522): > 100 µM (inactive)
GI50 (KM12): > 100 µM (inactive)
GI50 (Hs-578T): 29.6 µM (inactive)
GI50 (Malme-3M): > 100 µM (inactive)
GI50 (COLO 205): > 100 µM (inactive)
GI50 (786-0): 79.8 µM (inactive)
GI50 (SR): > 100 µM (inactive)
GI50 (A549): > 100 µM (inactive)
GI50 (LOX IMVI): > 100 µM (inactive)
GI50 (UACC-62): 36.2 µM (inactive)
GI50 (OVCAR-4): > 100 µM (inactive)
GI50 (SK-MEL-5): > 100 µM (inactive)
GI50 (SNB-19): > 100 µM (inactive)
GI50 (MDA-MB-435): > 100 µM (inactive)
GI50 (ACHN): 85.3 µM (inactive)
GI50 (SK-MEL-28): > 100 µM (inactive)
GI50 (CCRF-CEM): > 100 µM (inactive)
GI50 (SF-539): > 100 µM (inactive)
GI50 (A498): > 100 µM (inactive)
GI50 (UACC-257): > 100 µM (inactive)
GI50 (MOLT-4): > 100 µM (inactive)
GI50 (OVCAR-5): > 100 µM (inactive)
GI50 (HCT-15): > 100 µM
GI50 (MCF7): > 100 µM (inactive)
GI50 (EKVX): 59.7 µM (inactive)
GI50 (IGROV-1): > 100 µM (inactive)
GI50 (RPMI-8226): > 100 µM (inactive)
GI50 (RXF 393): 71.9 µM (inactive)
GI50 (NCI-H226): > 100 µM (inactive)
GI50 (T47D): > 100 µM (inactive)
GI50 (SK-MEL-2): > 100 µM (inactive)
GI50 (DU-145): > 100 µM (inactive)
GI50 (SNB-75): 29.2 µM (inactive)
GI50 (CAKI-1): > 100 µM (inactive)
GI50 (TK-10): > 100 µM (inactive)
GI50 (NCI/ADR-RES): > 100 µM (inactive)
GI50 (OVCAR-8): > 100 µM (inactive)
GI50 (U-251): > 100 µM (inactive)
GI50 (SW-620): > 100 µM (inactive)
GI50 (BT-549): > 100 µM (inactive)
GI50 (HCC 2998): > 100 µM (inactive)
GI50 (HOP-92): 17.9 µM (inactive)
GI50 (SN12C): > 100 µM (inactive)
GI50 (M14): > 100 µM (inactive)

COc1ccc(CCCCl)c(C2=NCCc3ccccc32)c1
GI50 (PC-3): 19.5 µM (inactive)
GI50 (NCI-H460): 36.4 µM (inactive)
GI50 (SK-OV-3): > 100 µM (inactive)
GI50 (NCI-H23): 11.1 µM (inactive)
GI50 (K562): 14.6 µM (inactive)
GI50 (OVCAR-3): 56.5 µM (inactive)
GI50 (MDA-MB-231): 25.1 µM (inactive)
GI50 (HL-60): 10.4 µM (inactive)
GI50 (SF-295): 32.8 µM (inactive)
GI50 (SF-268): 27.5 µM (inactive)
GI50 (NCI-H522): 6.75 µM (inactive)
GI50 (KM12): 27.4 µM (inactive)
GI50 (Hs-578T): 20.6 µM (inactive)
GI50 (COLO 205): 17.3 µM (inactive)
GI50 (786-0): 89.5 µM (inactive)
GI50 (SR): 28.1 µM (inactive)
GI50 (A549): 44.2 µM (inactive)
GI50 (HT-29): 19.2 µM (inactive)
GI50 (UACC-62): 84.5 µM (inactive)
GI50 (OVCAR-4): 45.1 µM (inactive)
GI50 (SK-MEL-5): 9.59 µM (inactive)
GI50 (SNB-19): 14.8 µM (inactive)
GI50 (MDA-MB-435): 26.2 µM (inactive)
GI50 (ACHN): > 100 µM (inactive)
GI50 (SK-MEL-28): > 100 µM (inactive)
GI50 (CCRF-CEM): 53.6 µM (inactive)
GI50 (SF-539): 35.8 µM (inactive)
GI50 (A498): > 100 µM (inactive)
GI50 (UACC-257): 34.7 µM (inactive)
GI50 (MOLT-4): 32.4 µM (inactive)
GI50 (OVCAR-5): > 100 µM (inactive)
GI50 (HCT-15): > 100 µM
GI50 (MCF7): 38.2 µM (inactive)
GI50 (UO-31): 66.5 µM (inactive)
GI50 (EKVX): 37.7 µM (inactive)
GI50 (IGROV-1): 24.8 µM (inactive)
GI50 (RPMI-8226): 2.99 µM (inactive)
GI50 (HOP-62): 33.4 µM (inactive)
GI50 (RXF 393): 56.9 µM (inactive)
GI50 (NCI-H226): 31.7 µM (inactive)
GI50 (T47D): 32.9 µM (inactive)
GI50 (SK-MEL-2): 61.7 µM (inactive)
GI50 (DU-145): > 100 µM (inactive)
GI50 (SNB-75): 29.1 µM (inactive)
GI50 (CAKI-1): > 100 µM (inactive)
GI50 (TK-10): > 100 µM (inactive)
GI50 (NCI/ADR-RES): > 100 µM (inactive)
GI50 (OVCAR-8): 35.4 µM (inactive)
GI50 (U-251): 9.75 µM (inactive)
GI50 (SW-620): 70.8 µM (inactive)
GI50 (BT-549): 33.3 µM (inactive)
GI50 (HCC 2998): 23.4 µM (inactive)
GI50 (HOP-92): 71.1 µM (inactive)
GI50 (SN12C): 9.91 µM (inactive)
GI50 (HCT-116): 29.5 µM (inactive)
GI50 (M14): 71.3 µM (inactive)
